Measured values reported in patent US10221144B2, “Antibacterial compounds having broad spectrum of activity” (priority 2014, dated 2019).
pIC50: −log10 of the molar value. Where a name gives a salt, the structure may show the parent alone. Read-outs that look alike come from different tables or passages of the source.

Columns and labels:
Assay type in all cases: biochemical
E. coli Topoisomerase IV = target: T1, E. coli Topoisomerase IV (Escherichia coli, UniProt P0AFI2+P20083); assay: Topoisomerase IV decatenation assay (E. coli); conditions: for inhibition at 50 µM: conc. 50 μM
T1 construct: purchased Inspiralis, UK
Outline: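 Topo IV decatenation of kDNA (200 ng) with 0.5 U enzyme in HEPES-KOH pH 7.6 buffer containing 1 mM ATP and Mg acetate, 30 min at 37 °C. Single-concentration screen (200, 100 or 50 μM) in duplicate. Decatenated minicircles resolved on agarose, ethidium-stained band intensity expressed as % inhibition versus vehicle; IC50 from exponential-decay curve fit.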

S. aureus DNA gyrase = target: T2, S. aureus DNA gyrase (Staphylococcus aureus, UniProt P0A0K8+P20831); assay: DNA gyrase supercoiling assay (S. aureus); conditions: for inhibition at 50 µM: conc. 50 μM
T2 construct: purchased Inspiralis, UK
Outline: (§1)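 Relaxed pBR322 (0.5 μg) supercoiled by E. coli (2 U) or S. aureus (1 U) gyrase, 30 min at 37° C; compounds at single 200, 100 or 50 μM, duplicate. Supercoiled band quantified on ethidium-stained agarose gel, expressed as % inhibition vs DMSO control; IC50 by two-parameter exponential decay fit.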

[1] = target: T3, S. aureus Topoisomerase IV (Staphylococcus aureus, UniProt P0C1S7+P0C1U9); assay: Topoisomerase IV decatenation assay (S. aureus)
T3 construct: purchased Inspiralis, UK
Experimental: The above compounds were tested for the inhibition of the enzyme DNA gyrase in a gyrase supercoiling assay and for the inhibition of the enzyme topoisomerase IV in a decatenation assay, in both Gram positive and Gram negative bacteria, according to the following methods.
Both the assays were carried out according to a set-up method modified from the article to Blanche F, et al. “Differential Behaviors of Staphylococcus aureus and Escherichia coli Type II DNA Topoisomerases”, Antimicrob. Agents Chemother., 1996, Vol. 40, No. 12 p. 2714-2720.
The compounds were screened at single concentration (200, 100 or 50 μM), in duplicate.
S. aureus and E. coli Topoisomerase IV decatenation kits (Inspiralis, UK) were used. A master mix with a total volume sufficient for the number of reactions to perform was prepared with the following reagents: 5× assay buffer (50 mM HEPES-KOH (pH 7.6), 100 mM potassium glutamate, 10 mM magnesium acetate, 10 mM DTT, 1 mM ATP, 50 μg/ml albumin), kDNA substrate (200 ng/reaction), RNase-DNase free water. Aliquots of this mix were dispensed in each tube, then 10× compound stock solutions or vehicle control (DMSO), were added in each reaction tube.
Reaction was started with Topoisomerase IV enzyme (0.5 U/reaction) addition.
A sample added with an equal volume of dilution buffer was used as negative control (without enzyme).
The reaction tubes were gentle vortexed and incubated 30 minutes at 37° C. Each reaction was stopped by adding 30 μl of Stop Buffer and 30 μl of chloroform/isoamyl alcohol (24/1), briefly vortexed for 5-10 seconds and centrifuged at 20000×g for 2 minutes. Samples taken from the upper phase were loaded into 1% agarose gel and subjected to electrophoresis for 1 hour at 80V constant voltage in TAE (40 mM Tris-acetate, 2 mM EDTA).
Data acquisition and analysis. Due to the high molecular mass, kDNA could not enter an agarose gel under normal electrophoresis conditions, but remained in the wells. In the presence of Topo IV topoisomerase mini-circles (2.5 Kb) were released from kDNA by decatenation and were quickly and easily resolved in the gel at relatively high voltages.
Bands were visualized by ethidium bromide staining (dil 1:20000) for 30 minutes followed by destaining in distilled water for 10 minutes.
For single concentration screening assay, in order to evaluate the compounds activity on the enzymes, the bands of decatenated DNAs in the gel were photographed by a digital imaging system ImageQuant LAS 4000 (GE Healthcare) according to manufacturer's instructions.
The fluorescent intensity of each band was analyzed by ImageQuant TL software and it was expressed as volume (volume of the uncalibrated quantity of material in the image feature after subtraction of the background intensity by using rolling ball method).
Each band intensity was compared, as percentage, to vehicle sample band intensity, which served as positive control, on the same gel.
Inhibitory activity was expressed as percent of inhibition versus the positive control.
The supercoiled or decatenated DNA bands obtained as described in Example 1 were analysed as follows.
Bands were analyzed by gel documentation equipment (Syngene, Cambridge, UK) and quantitated using Syngene Gene Tools software. Raw gel data (fluorescent band volumes) collected from Syngene, GeneTools gel analysis software were converted to a percentage of the 100% control (the fully supercoiled or decatenated DNA band). […] The IC50 data were calculated by using the global curve fit non-linear regression tool by selecting the Single, 2 Parameter fit function from the Exponential Decay equation category.

E. coli DNA gyrase = target: T4, E. coli DNA gyrase (Escherichia coli, UniProt P0AES4+P0AES6); assay: DNA gyrase supercoiling assay (E. coli); conditions: for inhibition at 50 µM: conc. 50 μM
T4 construct: purchased Inspiralis, UK
Outline: as §1

[2] = E. coli, n/a = not active, read-out: % inhibition Topo IV
[3] = S. aureus, conc. 50 μM, n/a = not active, read-out: % inhibition Topo IV

T2 sequence (P0A0K8 whole entry): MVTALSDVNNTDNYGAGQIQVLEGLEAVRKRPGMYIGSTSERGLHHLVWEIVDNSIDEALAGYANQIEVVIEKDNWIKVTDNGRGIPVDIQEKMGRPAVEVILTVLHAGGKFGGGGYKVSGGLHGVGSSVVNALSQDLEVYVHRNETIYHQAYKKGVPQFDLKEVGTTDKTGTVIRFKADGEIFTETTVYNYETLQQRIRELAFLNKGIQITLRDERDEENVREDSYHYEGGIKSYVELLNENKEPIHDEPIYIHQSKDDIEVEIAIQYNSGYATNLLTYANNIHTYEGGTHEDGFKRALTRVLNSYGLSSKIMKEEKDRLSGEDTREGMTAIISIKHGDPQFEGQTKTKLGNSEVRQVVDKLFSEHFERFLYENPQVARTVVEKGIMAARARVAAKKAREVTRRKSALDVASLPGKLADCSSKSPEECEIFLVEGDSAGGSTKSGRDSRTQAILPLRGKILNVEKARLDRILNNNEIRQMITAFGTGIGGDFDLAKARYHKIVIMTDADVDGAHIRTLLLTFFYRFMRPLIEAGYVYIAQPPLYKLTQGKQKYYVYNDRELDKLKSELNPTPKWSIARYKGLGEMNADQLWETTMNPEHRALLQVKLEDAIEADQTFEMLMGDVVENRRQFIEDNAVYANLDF
T2 sequence (P20831 whole entry): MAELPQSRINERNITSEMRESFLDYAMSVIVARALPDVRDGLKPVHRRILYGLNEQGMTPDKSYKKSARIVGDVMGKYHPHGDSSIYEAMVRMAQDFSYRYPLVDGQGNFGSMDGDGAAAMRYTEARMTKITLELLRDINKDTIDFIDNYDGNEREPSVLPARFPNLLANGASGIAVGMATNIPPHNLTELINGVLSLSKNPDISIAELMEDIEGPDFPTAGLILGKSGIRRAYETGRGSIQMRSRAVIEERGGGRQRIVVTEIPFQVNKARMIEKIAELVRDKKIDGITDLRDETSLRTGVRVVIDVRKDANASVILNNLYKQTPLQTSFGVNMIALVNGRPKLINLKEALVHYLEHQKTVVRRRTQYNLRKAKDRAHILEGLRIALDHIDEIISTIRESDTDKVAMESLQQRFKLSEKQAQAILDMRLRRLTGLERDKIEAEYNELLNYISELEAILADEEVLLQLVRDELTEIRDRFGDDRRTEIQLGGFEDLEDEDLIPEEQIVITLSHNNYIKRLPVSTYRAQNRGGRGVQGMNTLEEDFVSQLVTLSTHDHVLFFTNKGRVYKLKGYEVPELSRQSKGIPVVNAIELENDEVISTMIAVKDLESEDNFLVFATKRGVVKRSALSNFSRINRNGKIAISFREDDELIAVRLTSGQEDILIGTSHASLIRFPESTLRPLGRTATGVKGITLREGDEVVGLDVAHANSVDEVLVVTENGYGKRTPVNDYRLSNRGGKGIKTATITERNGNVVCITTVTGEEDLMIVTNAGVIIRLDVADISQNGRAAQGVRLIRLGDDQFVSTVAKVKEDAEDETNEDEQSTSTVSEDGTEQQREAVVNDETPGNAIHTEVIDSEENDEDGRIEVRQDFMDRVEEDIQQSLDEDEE
T4 sequence (P0AES4 whole entry, one chain of several): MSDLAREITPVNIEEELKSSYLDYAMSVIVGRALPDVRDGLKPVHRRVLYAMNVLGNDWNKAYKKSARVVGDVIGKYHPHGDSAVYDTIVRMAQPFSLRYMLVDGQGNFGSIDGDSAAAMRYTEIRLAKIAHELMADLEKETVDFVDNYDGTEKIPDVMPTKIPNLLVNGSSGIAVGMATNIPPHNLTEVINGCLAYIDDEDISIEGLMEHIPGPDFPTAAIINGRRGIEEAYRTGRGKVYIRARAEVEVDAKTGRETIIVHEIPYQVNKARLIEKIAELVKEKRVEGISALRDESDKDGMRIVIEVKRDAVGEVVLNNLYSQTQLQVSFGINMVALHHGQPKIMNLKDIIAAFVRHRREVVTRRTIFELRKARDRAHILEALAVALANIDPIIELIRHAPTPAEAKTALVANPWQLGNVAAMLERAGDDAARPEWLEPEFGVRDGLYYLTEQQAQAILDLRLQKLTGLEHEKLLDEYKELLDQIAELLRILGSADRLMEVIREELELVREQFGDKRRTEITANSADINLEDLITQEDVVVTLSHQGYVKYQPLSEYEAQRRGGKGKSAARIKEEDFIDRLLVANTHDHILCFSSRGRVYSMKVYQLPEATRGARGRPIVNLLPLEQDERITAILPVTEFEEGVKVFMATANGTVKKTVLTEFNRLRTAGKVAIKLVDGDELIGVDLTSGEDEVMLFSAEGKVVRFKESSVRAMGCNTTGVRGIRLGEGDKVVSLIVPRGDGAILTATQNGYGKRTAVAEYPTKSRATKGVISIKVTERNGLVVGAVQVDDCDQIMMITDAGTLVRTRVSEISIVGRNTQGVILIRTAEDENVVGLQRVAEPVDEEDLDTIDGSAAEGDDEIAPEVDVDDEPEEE
T3 sequence (P0C1S7 whole entry): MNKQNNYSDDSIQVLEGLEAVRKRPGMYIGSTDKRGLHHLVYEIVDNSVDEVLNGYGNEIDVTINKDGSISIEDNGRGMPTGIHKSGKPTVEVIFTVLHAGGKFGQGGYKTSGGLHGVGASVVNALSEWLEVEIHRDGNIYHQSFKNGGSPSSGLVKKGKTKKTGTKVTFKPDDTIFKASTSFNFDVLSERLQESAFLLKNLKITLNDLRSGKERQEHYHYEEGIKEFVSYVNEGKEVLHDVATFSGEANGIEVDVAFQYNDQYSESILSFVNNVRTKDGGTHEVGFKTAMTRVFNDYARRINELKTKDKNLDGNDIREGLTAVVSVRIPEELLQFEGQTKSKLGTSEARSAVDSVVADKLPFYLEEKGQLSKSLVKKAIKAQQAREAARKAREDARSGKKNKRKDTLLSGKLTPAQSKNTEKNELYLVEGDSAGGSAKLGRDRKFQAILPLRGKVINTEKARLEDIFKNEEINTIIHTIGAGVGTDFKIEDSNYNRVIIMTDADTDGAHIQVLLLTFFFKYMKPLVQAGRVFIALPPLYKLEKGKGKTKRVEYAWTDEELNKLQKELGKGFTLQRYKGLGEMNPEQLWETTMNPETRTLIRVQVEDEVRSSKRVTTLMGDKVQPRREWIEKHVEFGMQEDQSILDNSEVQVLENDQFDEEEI
T3 sequence (P0C1U9 whole entry): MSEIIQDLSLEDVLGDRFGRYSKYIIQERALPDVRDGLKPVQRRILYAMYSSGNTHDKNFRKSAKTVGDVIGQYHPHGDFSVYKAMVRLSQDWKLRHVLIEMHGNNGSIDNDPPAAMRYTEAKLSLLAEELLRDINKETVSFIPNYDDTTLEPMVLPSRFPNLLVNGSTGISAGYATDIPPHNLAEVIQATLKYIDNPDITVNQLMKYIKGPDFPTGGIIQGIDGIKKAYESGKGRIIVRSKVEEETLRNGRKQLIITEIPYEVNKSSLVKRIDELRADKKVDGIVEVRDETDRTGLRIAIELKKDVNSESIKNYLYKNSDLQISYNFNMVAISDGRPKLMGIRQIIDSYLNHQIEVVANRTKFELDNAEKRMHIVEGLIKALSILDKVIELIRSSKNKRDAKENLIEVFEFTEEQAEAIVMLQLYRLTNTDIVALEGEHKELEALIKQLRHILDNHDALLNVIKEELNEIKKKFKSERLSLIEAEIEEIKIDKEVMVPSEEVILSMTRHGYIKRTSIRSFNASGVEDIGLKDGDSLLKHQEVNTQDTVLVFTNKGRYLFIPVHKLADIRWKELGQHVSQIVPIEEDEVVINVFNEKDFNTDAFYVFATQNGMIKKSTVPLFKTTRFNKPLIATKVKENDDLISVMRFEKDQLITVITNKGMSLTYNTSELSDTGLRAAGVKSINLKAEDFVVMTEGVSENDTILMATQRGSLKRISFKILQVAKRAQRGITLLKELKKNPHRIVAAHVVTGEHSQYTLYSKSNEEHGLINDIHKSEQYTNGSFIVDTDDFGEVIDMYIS

| SMILES | pIC50 (E. coli Topoisomerase IV) | inhibition at 200 µM (E. coli Topoisomerase IV; E. coli, conc. 200 μM, n/a = not active, read-out: % inhibition Topo IV) [%] | pIC50 (S. aureus DNA gyrase) | inhibition at 200 µM (S. aureus DNA gyrase; S. aureus, conc. 200 μM, n/a = not active) [%] | pIC50 [1] | inhibition at 200 µM ([1]; S. aureus, conc. 200 μM, n/a = not active, read-out: % inhibition Topo IV) [%] | pIC50 (E. coli DNA gyrase) | inhibition at 200 µM (E. coli DNA gyrase; E. coli, conc. 200 μM, n/a = not active) [%] | inhibition at 50 µM (E. coli Topoisomerase IV; [2]) [%] | inhibition at 50 µM (S. aureus DNA gyrase; S. aureus, n/a = not active) [%] | inhibition at 50 µM [1, 3] [%] | inhibition at 50 µM (E. coli DNA gyrase; E. coli, n/a = not active) [%] | pIC50 ([1]; S. aureus, concentration-response curve, eight half-log concentrations 0.1 to 300 μM, read-out: IC50 Topo IV) | inhibition at 50 µM ([1]; read-out: % inhibition Topo IV) [%] |
| --- | --- | --- | --- | --- | --- | --- | --- | --- | --- | --- | --- | --- | --- | --- |
| O=c1cc(NCCCN2CCN(c3nccc4ccccc34)CC2)c2ccccc2o1 [Compound 44, 4-({3-[4-(isoquinolin-1-yl)piperazin-1-yl]propyl}amino)-2H-chromen-2-one] | 5.00 | 100 | 4.85 | 100 | 4.05 | 65 | 6.30 | 100 | – | – | – | – | – | – |
| O=c1oc2ccccc2c2[nH]c(CNC3CCN(c4nccc5ccc(F)cc45)CC3)c(C(F)(F)F)c12 [Compound 153, 2-({[1-(7-fluoroisoquinolin-1-yl)piperidin-4-yl]amino}methyl)-3-(trifluoromethyl)[1]benzopyrano[4,3-b]pyrrol-4(1H)-one] | 5.87 | – | 6.31 | – | 5.64 | – | 5.85 | – | 50 | 100 | 61 | 72 | – | – |
| NC(CN1CCN(c2nccc3ccc(F)cc23)CC1)c1nc2c(=O)oc3ccccc3c2[nH]1 (stereo not shown) [Compound 158, 2-{1-amino-2-[4-(7-fluoroisoquinolin-1-yl)piperazin-1-yl]ethyl}[1]benzopyrano[3,4-d]imidazol-4(1H)-one hydrochloride] | 6.04 | – | 6.07 | – | – | – | 5.73 | – | 97 | 100 | – | 95 | 5.67 | 100 |
| CC1CN(c2nccc3ccc(F)cc23)CCC1NCc1cc2c(=O)oc3ccccc3c2[nH]1 (stereo not shown) [Compound 177, 2-({[1-(7-fluoroisoquinolin-1-yl)-3-methylpiperidin-4-yl]amino}methyl) [1]benzopyrano[4,3-b]pyrrol-4(1H)-one] | – | – | – | – | – | – | – | – | 74 | 98 | 14 | 77 | – | – |
| COc1ccc2ncc(C#N)c(N3CCC(NCc4cc5c([nH]4)c(=O)oc4ccc(F)cc45)CC3)c2n1 [Compound 195, 4-(4-{[(8-fluoro-4-oxo-3,4-dihydro[1]benzopyrano[3,4-b]pyrrol-2-yl)methyl]amino}piperidin-1-yl)-6-methoxy-1,5-naphthyridine-3-carbonitrile] | 6.52 | – | 7.00 | – | 7.00 | – | 6.85 | – | 100 | 100 | 100 | 99 | – | – |
| O=c1oc2ccccc2c2[nH]c(CNC3CCN(c4nccc5ccc(F)cc45)CC3F)cc12 (stereo not shown) [Compound 172, 2-({[3-fluoro-1-(7-fluoroisoquinolin-1-yl)piperidin-4-yl]amino}methyl)[1]benzopyrano[4,3-b]pyrrol-4(1H)-one] | – | – | – | – | – | – | – | – | 89 | 64 | 39 | 94 | – | – |
| COc1cnc2ccnc(N3CCC(NCc4cc5c([nH]4)c(=O)oc4ccc(F)cc45)CC3)c2n1 [Compound 199, 8-fluoro-2-({[1-(3-methoxypyrido[3,4-b]pyrazin-5-yl)piperidin-4-yl]amino}methyl)[1]benzopyrano[3,4-b]pyrrol-4(3H)-one] | – | – | – | – | – | – | – | – | 100 | 92 | – | 90 | – | 100 |
| Fc1ccc2ccnc(N3CCN(CCNCc4cc5c(cn4)OCCC5)CC3)c2c1 [Compound 150, N-[(3,4-dihydro-2H-pyrano[2,3-c]pyridin-6-yl)methyl]-2-[4-(7-fluoroisoquinolin-1-yl)piperazin-1-yl]ethan-1-amine] | 5.37 | – | 5.99 | – | 5.23 | – | 4.77 | – | 50 | 100 | 50 | 50 | – | – |
